Experimental data from PubChem BioAssay (NCI).
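Step 1: Grow cells in 96-well plates. Step 2: Expose to compound for 48 hours at 5 concentrations. Step 3: Interpolate endpoints linearly; if unreached, use highest concentration. The concentration for 50% growth inhibition is given as GI50. TGI denotes the concentration required for complete inhibition of growth.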

Legend:
Assay in all cases: DTP human tumour cell line panel, 48 h
A549 NSCLC = system: A549 NSCLC
COLO 205 colon = system: COLO 205 colon
SN12C renal = system: SN12C renal
ACHN renal = system: ACHN renal
UACC-257 melanoma = system: UACC-257 melanoma
TK-10 renal = system: TK-10 renal
T-47D breast = system: T-47D breast
SK-OV-3 ovarian = system: SK-OV-3 ovarian
NCI-H23 lung = system: NCI-H23 lung
HOP-92 NSCLC = system: HOP-92 NSCLC
KM12 colon = system: KM12 colon
M14 melanoma = system: M14 melanoma
SW-620 colon = system: SW-620 colon
RXF 393 renal = system: RXF 393 renal
CAKI-1 renal = system: CAKI-1 renal
CCRF-CEM leukemia = system: CCRF-CEM leukemia
HCT-116 colon = system: HCT-116 colon
UACC-62 melanoma = system: UACC-62 melanoma
U251 CNS = system: U251 CNS
PC-3 prostate = system: PC-3 prostate
SNB-75 CNS = system: SNB-75 CNS
NCI-H226 lung = system: NCI-H226 lung
SF-539 CNS = system: SF-539 CNS
NCI/ADR-RES ovarian = system: NCI/ADR-RES ovarian
OVCAR-8 ovarian = system: OVCAR-8 ovarian
MALME-3M melanoma = system: MALME-3M melanoma
K-562 leukemia = system: K-562 leukemia
SR leukemia = system: SR leukemia
NCI-H460 lung = system: NCI-H460 lung
HS 578T breast = system: HS 578T breast
OVCAR-5 ovarian = system: OVCAR-5 ovarian
MDA-MB-435 = system: MDA-MB-435
SF-295 CNS = system: SF-295 CNS
HL-60(TB) leukemia = system: HL-60(TB) leukemia
SF-268 CNS = system: SF-268 CNS
SK-MEL-2 melanoma = system: SK-MEL-2 melanoma
SK-MEL-5 melanoma = system: SK-MEL-5 melanoma
OVCAR-4 ovarian = system: OVCAR-4 ovarian
IGROV1 ovarian = system: IGROV1 ovarian
NCI-H522 lung = system: NCI-H522 lung
HCC-2998 colon = system: HCC-2998 colon
BT-549 breast = system: BT-549 breast
DU-145 prostate = system: DU-145 prostate
A498 renal = system: A498 renal
MDA-MB-231 breast = system: MDA-MB-231 breast
MCF7 breast = system: MCF7 breast
EKVX NSCLC = system: EKVX NSCLC
SK-MEL-28 melanoma = system: SK-MEL-28 melanoma
UO-31 renal = system: UO-31 renal
SNB-19 CNS = system: SNB-19 CNS
OVCAR-3 ovarian = system: OVCAR-3 ovarian
786-0 renal = system: 786-0 renal
LOX IMVI melanoma = system: LOX IMVI melanoma
HCT-15 colon = system: HCT-15 colon
MOLT-4 leukemia = system: MOLT-4 leukemia
RPMI-8226 leukemia = system: RPMI-8226 leukemia
HT29 colon = system: HT29 colon

## Cc1c(Cl)c(C)c(Cc2c(C)c(Cl)c(C)c(Cl)c2O)c(O)c1Cl
A549 NSCLC
  GI50: 4.07 µM
  TGI: 18.6 µM
COLO 205 colon
  GI50: 3.04 µM
  TGI: 9.24 µM
SN12C renal
  GI50: 2.46 µM
  TGI: 11.8 µM
ACHN renal
  GI50: 2.32 µM
  TGI: 6.88 µM
UACC-257 melanoma
  GI50: 3.52 µM
  TGI: 14.9 µM
TK-10 renal
  GI50: 3.79 µM
  TGI: 17.2 µM
T-47D breast
  GI50: 2.11 µM
  TGI: 8.76 µM
SK-OV-3 ovarian
  GI50: 2.68 µM
  TGI: 9.46 µM
NCI-H23 lung
  GI50: 2.46 µM
  TGI: 8.79 µM
HOP-92 NSCLC
  GI50: 1.16 µM
  TGI: 4.74 µM
KM12 colon
  GI50: 3.34 µM
  TGI: 11.4 µM
M14 melanoma
  GI50: 3.53 µM
  TGI: 14.4 µM
SW-620 colon
  GI50: 3.14 µM
  TGI: 13.5 µM
RXF 393 renal
  GI50: 2 µM
  TGI: 6.89 µM
CAKI-1 renal
  GI50: 2.3 µM
  TGI: 9.77 µM
CCRF-CEM leukemia
  GI50: 2.57 µM
  TGI: 12.6 µM
HCT-116 colon
  GI50: 2.42 µM
  TGI: 10.5 µM
UACC-62 melanoma
  GI50: 1.81 µM
  TGI: 6.84 µM
U251 CNS
  GI50: 3.1 µM
  TGI: 10.9 µM
PC-3 prostate
  GI50: 1.99 µM
  TGI: 11.8 µM
SNB-75 CNS
  GI50: 2.27 µM
  TGI: 7.93 µM
NCI-H226 lung
  GI50: 2.52 µM
  TGI: 10.7 µM
SF-539 CNS
  GI50: 3.01 µM
  TGI: 11.4 µM
NCI/ADR-RES ovarian
  GI50: 3.09 µM
  TGI: 10.2 µM
OVCAR-8 ovarian
  GI50: 3.73 µM
  TGI: 21.6 µM
MALME-3M melanoma
  GI50: 2.33 µM
  TGI: 5.97 µM
K-562 leukemia
  GI50: 2.21 µM
  TGI: 14.1 µM
SR leukemia
  GI50: 3.4 µM
  TGI: 12.4 µM
NCI-H460 lung
  GI50: 2.43 µM
  TGI: 10.2 µM
HS 578T breast
  GI50: 2.71 µM
  TGI: 9.55 µM
OVCAR-5 ovarian
  GI50: 3.67 µM
  TGI: 14.4 µM
MDA-MB-435
  GI50: 3.13 µM
  TGI: 11.1 µM
SF-295 CNS
  GI50: 2.05 µM
  TGI: 5.08 µM
HL-60(TB) leukemia
  GI50: 2.92 µM
  TGI: 11.2 µM
SF-268 CNS
  GI50: 3.4 µM
  TGI: 15.8 µM
SK-MEL-2 melanoma
  GI50: 2.85 µM
  TGI: 9.73 µM
SK-MEL-5 melanoma
  GI50: 1.28 µM
  TGI: 3.33 µM
OVCAR-4 ovarian
  GI50: 2.99 µM
  TGI: 9.97 µM
IGROV1 ovarian
  GI50: 4.07 µM
  TGI: 19 µM
NCI-H522 lung
  GI50: 1.84 µM
  TGI: 11.2 µM
HCC-2998 colon
  GI50: 3.8 µM
  TGI: 11.6 µM
BT-549 breast
  GI50: 2.37 µM
  TGI: 8.33 µM
DU-145 prostate
  GI50: 4.83 µM
  TGI: 16.6 µM
A498 renal
  GI50: 2.04 µM
  TGI: 6.35 µM
MDA-MB-231 breast
  GI50: 2.38 µM
  TGI: 7.2 µM
MCF7 breast
  GI50: 2.14 µM
  TGI: 8.37 µM
EKVX NSCLC
  GI50: 2.64 µM
  TGI: 9.25 µM
SK-MEL-28 melanoma
  GI50: 3.14 µM
  TGI: 14 µM
UO-31 renal
  GI50: 3.09 µM
  TGI: 11.6 µM
SNB-19 CNS
  GI50: 3.15 µM
  TGI: 13.8 µM
OVCAR-3 ovarian
  GI50: 3.28 µM
  TGI: 11.2 µM
786-0 renal
  GI50: 2.98 µM
  TGI: 9.84 µM
LOX IMVI melanoma
  GI50: 3.18 µM
  TGI: 10.5 µM
HCT-15 colon
  GI50: 2.32 µM
  TGI: 10.7 µM
MOLT-4 leukemia
  GI50: 3.24 µM
  TGI: 13.4 µM
RPMI-8226 leukemia
  GI50: 1.18 µM
  TGI: 6.66 µM
HT29 colon
  GI50: 3.84 µM
  TGI: 12.7 µM
